Measurements taken from patent US20110172217A1, “RING-FUSED MORPHOLINE DERIVATIVE HAVING PI3K-INHIBITING ACTIVITY” (Shionogi & Co., Ltd., priority 2008, published 2011).

Columns and labels:
PI-3 kinase γ [1] = molecular target: T1, PI-3 kinase γ (Homo sapiens, UniProt P48736); experiment: PI3Kγ inhibitory activity, PI3-kinase HTRF assay (inhibition ratio); format: biochemical; settings: 0.5 h, compound at 50 μmol/L
Method: For each compound synthesized in the above Examples, PI3Kγ inhibitory activity was measured.
The PI3Kγ inhibitory activity of a compound was evaluated using PI3-kinase HTRF™ assay (Millipore) according to the following procedure:
To each well of a testing plate, 5 μL of a compound solution containing 10% DMSO (200 μmol/L or 40 μmol/L as the concentration of the compound), 5 μL of a substrate solution (40 μmol/L phosphatidylinositol (4,5)-bisphosphate, 20 mmol/L MgCl2, 10 mmol/L DTT), and 5 μL of a enzyme solution (80 μg/mL PI-3 kinase γ, 10 mmol/L MgCl2, 5 mmol/L DTT) were added, and then allowed to stand for 10 minutes.
Then, 5 μL of a reaction solution (40 μmol/L ATP, 10 mmol/L MgCl2, 5 mmol/L DTT) was added thereto. After reacting for 30 minutes at room temperature, 5 μL of a solution containing EDTA and biotinylated phosphatidylinositol (3,4,5)-triphosphate were added to quench the reaction.
5 μL of a detection reagent containing a europium-labeled anti-GST antibody, the GST-tagged PH domain, and allophycocyanin-labeled streptavidin was added thereto. After 18 hours, HTRF (excitation wavelength: 330 nm, measured wavelengths: 620 nm and 665 nm) was measured.
HTRF ratio was defined as the value obtained by dividing the amount of fluorescence obtained at the measured wavelength 665 nm by the amount of fluorescence obtained at 620 nm. The HTRF ratio in the absence of a compound was defined as 100% activity and the HTRF ratio in the absence of PI-3 kinase γ was defined as 0% activity to calculate an inhibition ratio which was defined as the PI3Kγ inhibitory activity of a compound at 50 μmol/L or 10 μmol/L.

[2] = Solubility test in artificial intestinal juice pH 6.8; format: physicochemical; settings: kinetic from dmso stock, artificial intestinal juice pH 6.8, 1% DMSO, 25° C.
Method: The solubility of a compound was determined under a condition in which 1% DMSO was added. 10 mmol/L compound solution was prepared using DMSO, and then 6 μL of the compound solution was added to 594 μL of artificial intestinal juice in pH 6.8 (to 250 mL of 0.2 mol/L potassium dihydrogen phosphate reagent solution was added 118 mL of 0.2 mol/L NaOH reagent solution and water to provide a final volume of 1000 mL). After standing at 25° C. for 16 hours, the mixed solution was filtered with suction. The filtrate was diluted twice with methanol/water (1/1), and then a concentration in the filtration was measured with HPLC or LC/MS/MS by the absolute calibration method.

[3] = Metabolic stability test, pooled human liver microsome; format: in vitro ADME; settings: 2 μmol/L compound; human liver microsome 0.5 mg protein/mL, NADPH, 37° C.
Method: After a subject compound was reacted for a certain time using a commercially available pooled human liver microsome, a reacted sample and an unreacted sample are compared to calculate a survival ratio, and then the degree of metabolism in the liver was evaluated.
0.2 mL of a buffer solution (50 mmol/L of Tris-HCl in pH 7.4, 150 mmol/L of potassium chloride, and 10 mmol/L of magnesium chloride) containing a human liver microsome of 0.5 mg protein/mL was reacted in the presence of 1 mmol/L NADPH at 37° C. for 0 or 30 minutes (oxidative reaction). After reacting, 50 μL of the reaction solution was added to 100 μL of a solution of methanol/acetonitrile (1/1 (v/v)), mixed, and then centrifuged at 3000 rpm for 15 minutes. The test compound in the supernatant was quantitated with LC/MS/MS. The amount of the compound at a reaction time of 0 minute was defined as 100% and, based on that, the percentage of the test compound remained after reacting for 30 minutes was calculated.

CYP1A2 = molecular target: T2, CYP1A2 (Homo sapiens, UniProt P05177); experiment: CYP inhibition test, O-de-ethylation of 7-ethoxyresorufin; format: in vitro ADME; settings: pooled human liver microsome; one of 5 kinds
T2 construct: enzyme: pooled human liver microsome 0.2 mg protein/mL; from tissue; host or cells: pooled human liver microsomes
T2 sequence (P05177 1-516): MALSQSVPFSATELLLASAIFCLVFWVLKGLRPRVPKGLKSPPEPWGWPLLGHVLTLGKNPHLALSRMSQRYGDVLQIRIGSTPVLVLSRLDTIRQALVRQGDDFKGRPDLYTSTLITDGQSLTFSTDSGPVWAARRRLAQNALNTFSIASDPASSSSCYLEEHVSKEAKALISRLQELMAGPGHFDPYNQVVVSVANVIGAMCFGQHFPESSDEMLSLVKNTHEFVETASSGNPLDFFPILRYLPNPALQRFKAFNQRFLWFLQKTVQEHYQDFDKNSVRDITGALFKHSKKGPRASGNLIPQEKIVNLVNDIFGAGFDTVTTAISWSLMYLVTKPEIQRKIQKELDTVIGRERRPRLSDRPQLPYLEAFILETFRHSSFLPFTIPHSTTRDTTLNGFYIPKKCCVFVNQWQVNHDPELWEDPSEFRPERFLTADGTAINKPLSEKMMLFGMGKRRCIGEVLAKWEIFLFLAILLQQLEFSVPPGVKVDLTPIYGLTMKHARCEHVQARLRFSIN
Text: (§1) O-de-ethylation of 7-ethoxyresorufin (CYP1A2), methyl-hydroxylation of tolbutamide (CYP2C9), 4′-hydroxylation of mephenyloin (CYP2C19), O-demethylation of dextromethorphan (CYP2D6), and hydroxylation of terfenadine (CYP3A4), which are typical substrate for metabolic reactions of human main CYP5 molecular species (CYP1A2, 2C9, 2C19, 2D6, and 3A4), were adopted as indexes.
(§2) The reaction conditions are as follows: substrate: 0.5 μmol/L of ethoxyresorufin (CYP1A2), 100 μmol/L of tolbutamide (CYP2C9), 50 μmol/L of S-mephenyloin (CYP2C19), […] of dextromethorphan (CYP2D6), and 1 μmol/L of terfenadine (CYP3A4); reaction time; 15 minutes; reaction temperature: 37° C.; enzyme: pooled human liver microsome 0.2 mg protein/mL; test drug concentration: 1, 5, 10, and 20 μmol/L (4 points).
(§3) In a 96-well plate, as a reaction solution, five kinds of substrates, a human liver microsome, and a test drug were added to 50 mmol/L Hepes buffer solution in the aforementioned ratio. A coenzyme NADPH was added to start a metabolic reaction, which is an index. After reacting at 37° C. for 15 minutes, a solution of methanol/acetonitrile (1/1 (v/v)) was added to quench the reaction. After centrifugation at 3000 rpm for 15 minutes, resorufin (CYP1A2 metabolite) in the supernatant was quantitated with a fluorescence multilabel counter, and hydroxylated tolbutamide (CYP2C9 metabolite), 4′-hydroxylated mephenyloin (CYP2C19 metabolite), […], terfenadine in alcohol form (CYP3A4 metabolite) were quantitated with LC/MS/MS.
(§4) The case wherein only DMSO (a solvent which dissolved a drug) was added to a reaction system was defined as a control (100%). When a test drug solution was added, the remaining activity (%) at each concentration was calculated, and then IC50 was calculated with a concentration and an inhibition ratio by an inverse estimation using a logistic model.

CYP2C9 = molecular target: T3, CYP2C9 (Homo sapiens, UniProt P11712); experiment: CYP inhibition test, methyl-hydroxylation of tolbutamide; format: in vitro ADME; settings: pooled human liver microsome; one of 5 kinds
T3 construct: enzyme: pooled human liver microsome 0.2 mg protein/mL; from tissue; host or cells: pooled human liver microsomes
Text: as §1, §2, §3, §4

CYP2C19 = molecular target: T4, CYP2C19 (Homo sapiens, UniProt P33261); experiment: CYP inhibition test, 4′-hydroxylation of mephenyloin; format: in vitro ADME; settings: pooled human liver microsome; one of 5 kinds
T4 construct: enzyme: pooled human liver microsome 0.2 mg protein/mL; from tissue; host or cells: pooled human liver microsomes
Text: as §1, §2, §3, §4

CYP2D6 = molecular target: T5, CYP2D6 (Homo sapiens, UniProt P10635); experiment: CYP inhibition test, O-demethylation of dextromethorphan; format: in vitro ADME; settings: pooled human liver microsome; one of 5 kinds
T5 construct: enzyme: pooled human liver microsome 0.2 mg protein/mL; from tissue; host or cells: pooled human liver microsomes
Text: as §1, §2, §3, §4

CYP3A4 = molecular target: T6, CYP3A4 (Homo sapiens, UniProt P08684); experiment: CYP inhibition test, hydroxylation of terfenadine; format: in vitro ADME; settings: pooled human liver microsome; one of 5 kinds
T6 construct: enzyme: pooled human liver microsome 0.2 mg protein/mL; from tissue; host or cells: pooled human liver microsomes
Text: as §1, §2, §3, §4

[4] = molecular target: T7, human ether-a-go-go related gene (hERG) channel (Homo sapiens, UniProt Q12809); experiment: hERG test, whole-cell patch-clamp, IKr; format: cell-based; settings: 1 μmol/L compound; HEK293 cell expressing hERG
T7 construct: expressed in transfected cells; host or cells: HEK293
Text: For the purpose of risk evaluation of QT interval extension of electrocardiogram, the activity on delayed rectification K^+ current (IKr), which plays an important role in a cardiac ventricle repolarization process, was examined using the HEK293 cell that was made to express human ether-a-go-go related gene (hERG) channel.
Using an automatic patch-clamp system (PatchXpress 7000A, Axon Instruments Inc.), by a whole-cell patch-clamp method, after the cell was maintained at a membrane potential of −80 mV, IKr induced upon applying depolarizing stimulation of +50 mV for 2 seconds and further applying repolarizing stimulation of −50 mV for 2 seconds was recorded. After generated electric current became stable, a test substance dissolved at an intended concentration in extracellular fluid (137 mmol/L NaCl, 4 mmol/L KCl, 1.8 mmol/L CaCl2.2H2O, 1 mmol/L MgCl2.6H2O, 10 mmol/L glucose, 10 mmol/L HEPES (4-(2-hydroxyethyl)-1-piperazineethanesulfonic acid), pH=7.4) was applied to the cell for 10 minutes under room temperature condition. From the obtained IKr, the absolute value of the maximum tail current was measured using analysis software (DataXpress ver. 1, Molecular Devices Corporation) and the value of the electric current in a maintained membrane potential as baseline. Moreover, an inhibition ratio for the maximum tail current prior to the application of the test substance was calculated and then compared with a group of media-application (0.1% dimethylsulfoxide solution) to evaluate influence of the test substance on IKr.

PI-3 kinase γ [5] = molecular target: T1, PI-3 kinase γ; experiment: PI3Kγ inhibitory activity (Ki value); format: biochemical; settings: test ATP concentration 10 μmol/L
Method: The PI3Kγ inhibitory activity (Ki value) of a compound was evaluated according to the following procedure:
5 μL of a compound solution containing 10% DMSO and 200 μmol/L of a compound was changed to 5 μL of a compound solution containing 10% DMSO and either 200, 64, 20, 6.4, 2, 0.64, or 0.20 μmol/L of the compound (optionally, this is diluted to a lower concentration). Using a method similar to the method for measuring PI3Kγ inhibitory activity, inhibition ratios were measured in the presence of the compound at 50, 16, 5, 1.6, 0.5, 0.16, and 0.05 μmol/L (optionally, a lower concentration). Then an IC50 value was calculated by a logistic approximation method or the linear regression method using two concentrations that across 50% inhibition. Separately, the ATP concentration in the reaction solution (40 μmol/L ATP, 10 mmol/L MgCl2, 5 mmol/L DTT) at the time of the start of a reaction in the absence of the compound was changed to 80, 40, 20, 10, 5, 2.5, 1.25, or 0.625 μmol/L. Then, HTRF ratios were measured by a similar method. The value obtained by subtracting the HTRF ratio at each ATP concentration from the HTRF ratio in the absence of PI-3 kinase γ was defined as the value obtained by multiplying reaction rate (v) at each ATP concentration with a constant. The Michaelis-Menten constant Km was then calculated by the Lineweaver-Burk plot method. The Ki value of a compound was calculated by the following formula.
Ki=IC50 value/(1+10 μmol/L (test ATP concentration)/Km(μmol/L))

T1 sequence (P48736 whole entry): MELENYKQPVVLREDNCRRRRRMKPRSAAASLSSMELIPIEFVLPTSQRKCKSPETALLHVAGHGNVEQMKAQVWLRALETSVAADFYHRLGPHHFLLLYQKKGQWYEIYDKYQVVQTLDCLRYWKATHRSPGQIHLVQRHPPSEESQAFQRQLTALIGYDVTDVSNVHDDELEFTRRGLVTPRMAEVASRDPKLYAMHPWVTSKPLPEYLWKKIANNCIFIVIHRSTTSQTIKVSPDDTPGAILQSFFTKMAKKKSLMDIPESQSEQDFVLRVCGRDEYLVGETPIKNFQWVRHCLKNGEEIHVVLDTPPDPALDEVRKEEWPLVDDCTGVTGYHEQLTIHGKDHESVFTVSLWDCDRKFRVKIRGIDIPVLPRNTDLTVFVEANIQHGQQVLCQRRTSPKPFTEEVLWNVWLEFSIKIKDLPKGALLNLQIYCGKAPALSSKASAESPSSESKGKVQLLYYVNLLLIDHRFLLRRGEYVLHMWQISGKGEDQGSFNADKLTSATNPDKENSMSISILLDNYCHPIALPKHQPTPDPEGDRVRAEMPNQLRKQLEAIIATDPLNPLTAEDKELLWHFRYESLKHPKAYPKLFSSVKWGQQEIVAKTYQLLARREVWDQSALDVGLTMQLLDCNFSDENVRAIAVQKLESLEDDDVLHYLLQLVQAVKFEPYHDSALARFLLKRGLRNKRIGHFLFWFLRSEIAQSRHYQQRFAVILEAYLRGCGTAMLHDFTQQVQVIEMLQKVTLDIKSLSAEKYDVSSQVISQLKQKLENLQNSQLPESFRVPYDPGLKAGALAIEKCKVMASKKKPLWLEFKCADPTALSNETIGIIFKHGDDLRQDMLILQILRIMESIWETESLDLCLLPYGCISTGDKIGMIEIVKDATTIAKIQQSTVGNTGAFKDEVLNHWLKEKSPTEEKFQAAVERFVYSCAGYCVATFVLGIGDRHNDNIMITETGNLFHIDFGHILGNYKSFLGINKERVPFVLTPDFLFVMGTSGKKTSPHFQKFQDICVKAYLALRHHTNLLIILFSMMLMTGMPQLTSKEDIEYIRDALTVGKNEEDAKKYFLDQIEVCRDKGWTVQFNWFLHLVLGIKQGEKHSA
T3 sequence (P11712 whole entry): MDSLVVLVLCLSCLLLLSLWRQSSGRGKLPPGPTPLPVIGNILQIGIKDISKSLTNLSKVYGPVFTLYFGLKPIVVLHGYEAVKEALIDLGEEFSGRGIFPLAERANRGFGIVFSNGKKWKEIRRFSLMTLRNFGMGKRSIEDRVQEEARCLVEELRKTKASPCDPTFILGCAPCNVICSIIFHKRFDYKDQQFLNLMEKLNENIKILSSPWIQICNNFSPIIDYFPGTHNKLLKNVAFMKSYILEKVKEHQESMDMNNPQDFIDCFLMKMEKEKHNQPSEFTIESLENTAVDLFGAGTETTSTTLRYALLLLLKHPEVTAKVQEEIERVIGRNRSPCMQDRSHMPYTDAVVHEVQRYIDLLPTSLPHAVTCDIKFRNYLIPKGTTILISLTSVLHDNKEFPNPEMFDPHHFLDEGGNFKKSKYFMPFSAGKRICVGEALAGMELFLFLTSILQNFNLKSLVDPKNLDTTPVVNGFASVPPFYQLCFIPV
T4 sequence (P33261 whole entry): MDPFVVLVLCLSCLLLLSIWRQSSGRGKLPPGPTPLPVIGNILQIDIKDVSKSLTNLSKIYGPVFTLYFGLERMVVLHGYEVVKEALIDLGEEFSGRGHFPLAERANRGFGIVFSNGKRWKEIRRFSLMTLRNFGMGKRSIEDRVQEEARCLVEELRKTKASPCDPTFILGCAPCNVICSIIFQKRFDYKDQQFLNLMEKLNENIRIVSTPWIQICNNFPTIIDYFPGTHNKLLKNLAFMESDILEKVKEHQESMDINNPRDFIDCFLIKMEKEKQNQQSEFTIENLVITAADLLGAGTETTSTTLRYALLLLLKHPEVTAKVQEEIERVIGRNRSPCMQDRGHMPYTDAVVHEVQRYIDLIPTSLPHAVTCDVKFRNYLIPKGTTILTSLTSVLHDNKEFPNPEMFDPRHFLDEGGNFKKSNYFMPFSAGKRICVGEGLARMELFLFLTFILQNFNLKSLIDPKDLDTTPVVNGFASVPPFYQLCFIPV
T5 sequence (P10635 whole entry): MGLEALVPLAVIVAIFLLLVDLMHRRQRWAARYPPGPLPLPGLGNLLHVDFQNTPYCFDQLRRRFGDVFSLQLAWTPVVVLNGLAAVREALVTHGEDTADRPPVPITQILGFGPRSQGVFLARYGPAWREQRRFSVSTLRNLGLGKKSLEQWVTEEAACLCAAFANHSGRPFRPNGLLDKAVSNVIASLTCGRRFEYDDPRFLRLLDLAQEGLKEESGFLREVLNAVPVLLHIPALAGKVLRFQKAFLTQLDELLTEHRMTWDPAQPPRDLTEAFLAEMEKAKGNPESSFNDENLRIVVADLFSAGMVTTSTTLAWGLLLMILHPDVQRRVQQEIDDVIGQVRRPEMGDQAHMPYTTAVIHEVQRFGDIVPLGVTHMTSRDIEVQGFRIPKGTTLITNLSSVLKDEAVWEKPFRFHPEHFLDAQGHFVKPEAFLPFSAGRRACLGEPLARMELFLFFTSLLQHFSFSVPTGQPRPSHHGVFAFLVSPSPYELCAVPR
T6 sequence (P08684 whole entry): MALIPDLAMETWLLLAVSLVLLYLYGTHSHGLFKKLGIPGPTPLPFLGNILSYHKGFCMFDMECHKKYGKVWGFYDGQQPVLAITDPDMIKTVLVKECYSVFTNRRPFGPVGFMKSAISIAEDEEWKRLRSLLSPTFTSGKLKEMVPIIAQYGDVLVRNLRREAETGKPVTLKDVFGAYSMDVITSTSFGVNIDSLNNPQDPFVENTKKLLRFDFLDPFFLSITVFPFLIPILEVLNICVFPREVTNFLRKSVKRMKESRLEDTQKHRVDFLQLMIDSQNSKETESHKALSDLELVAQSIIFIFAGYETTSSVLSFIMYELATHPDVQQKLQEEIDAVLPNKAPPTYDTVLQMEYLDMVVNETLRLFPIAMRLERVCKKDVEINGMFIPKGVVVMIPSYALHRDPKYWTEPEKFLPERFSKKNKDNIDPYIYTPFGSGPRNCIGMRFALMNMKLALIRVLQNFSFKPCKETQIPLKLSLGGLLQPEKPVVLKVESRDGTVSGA
T7 sequence (Q12809 whole entry): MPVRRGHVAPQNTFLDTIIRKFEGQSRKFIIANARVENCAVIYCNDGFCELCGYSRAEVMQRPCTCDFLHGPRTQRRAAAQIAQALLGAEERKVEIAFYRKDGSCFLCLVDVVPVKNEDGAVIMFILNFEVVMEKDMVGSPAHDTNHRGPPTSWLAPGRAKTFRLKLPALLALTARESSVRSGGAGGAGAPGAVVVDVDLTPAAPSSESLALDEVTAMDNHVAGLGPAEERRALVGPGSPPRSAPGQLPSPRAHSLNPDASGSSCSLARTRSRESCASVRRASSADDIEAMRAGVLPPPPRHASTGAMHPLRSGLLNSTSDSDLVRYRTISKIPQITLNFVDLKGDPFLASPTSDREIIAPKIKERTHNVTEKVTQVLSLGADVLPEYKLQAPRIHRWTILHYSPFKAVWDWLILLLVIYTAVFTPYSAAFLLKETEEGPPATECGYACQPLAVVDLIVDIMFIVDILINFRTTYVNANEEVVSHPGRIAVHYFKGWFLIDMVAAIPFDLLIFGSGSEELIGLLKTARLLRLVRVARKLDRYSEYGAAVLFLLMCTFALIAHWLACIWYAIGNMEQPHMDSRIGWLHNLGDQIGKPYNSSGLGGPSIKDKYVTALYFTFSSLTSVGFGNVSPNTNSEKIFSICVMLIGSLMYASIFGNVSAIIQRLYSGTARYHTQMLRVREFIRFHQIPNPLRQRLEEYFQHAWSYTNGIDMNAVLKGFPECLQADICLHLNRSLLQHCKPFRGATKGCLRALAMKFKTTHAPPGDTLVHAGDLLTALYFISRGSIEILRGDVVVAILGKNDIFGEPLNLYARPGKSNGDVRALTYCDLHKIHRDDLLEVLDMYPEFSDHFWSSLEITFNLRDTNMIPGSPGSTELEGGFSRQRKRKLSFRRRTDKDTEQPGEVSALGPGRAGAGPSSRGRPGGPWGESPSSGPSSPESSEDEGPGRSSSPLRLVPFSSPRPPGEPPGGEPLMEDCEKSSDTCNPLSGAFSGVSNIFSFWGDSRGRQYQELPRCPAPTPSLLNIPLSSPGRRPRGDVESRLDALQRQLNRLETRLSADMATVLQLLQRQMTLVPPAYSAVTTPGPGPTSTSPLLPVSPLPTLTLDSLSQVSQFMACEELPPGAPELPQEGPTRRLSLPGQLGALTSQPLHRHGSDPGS

SMILES	inhibition at 50 µM (PI-3 kinase γ [1])	solubility at 16 h [2]	percentage of test compound remained after reacting for 30 minutes [3]	Ki (PI-3 kinase γ [5])	other results
CC1(C)SC(N2CCOc3cccnc32)=NC1=O [Compound I-49]	≥ 95%	> 50 µM	90.1%		IC50 (CYP1A2): > 20 µM; IC50 (CYP2C9): > 20 µM; IC50 (CYP2C19): > 20 µM; IC50 (CYP2D6): > 20 µM; IC50 (CYP3A4): > 20 µM
O=C(O)c1ccc(-c2ccc3c(n2)N(C(=O)Nc2ccccc2)CCO3)s1 [Compound I-109]	≥ 95%	> 50 µM			hERG inhibition ratio for the maximum tail current (IKr) [4]: 1%
O=C(O)c1ccc(Nc2cnc3c(c2)OCCN3C(=O)Nc2ccccc2)cc1 [Compound I-139]	≥ 95%	> 50 µM	83%		hERG inhibition ratio for the maximum tail current (IKr) [4]: 8.7%
O=C(O)c1ccc(Nc2ccc3c(n2)N(C(=O)Nc2ccccc2)CCO3)cc1 [Compound I-146]	≥ 95%		100%	0.046 µM	
O=C(O)c1ccc(-c2ccc3c(n2)N(C(=O)Nc2cccnc2)CCO3)cc1 [Compound I-208]	≥ 95%			0.031 µM	
O=C(O)CNC(=O)Nc1cnc2c(c1)OCCN2C(=O)Nc1ccccc1 [Compound I-239]	≥ 95%	> 50 µM	100%		IC50 (CYP1A2): > 20 µM; IC50 (CYP2C9): > 20 µM; IC50 (CYP2C19): > 20 µM; IC50 (CYP2D6): > 20 µM; IC50 (CYP3A4): > 20 µM
O=C(O)COc1ccccc1Nc1ccc2c(n1)N(C(=O)Nc1ccccc1)CCO2 [Compound I-248]	≥ 95%	> 50 µM		0.025 µM	
O=C(Nc1ccccc1)N1CCOc2cc(Nc3ccc(CN4CCS(=O)(=O)CC4)cc3)cnc21 [Compound I-325]	82%				
COC(=O)c1ccc(Nc2cnc3c(c2)OCCN3C(=O)Nc2ccccc2)cc1OC [Compound I-327]	86%				
CCN(CC)c1cc(F)cc(Nc2cnc3c(c2)OCCN3C(=O)Nc2ccccc2)c1 [Compound I-328]	91%				
COc1ccc(-c2ccc3c(n2)N(C2=NC(=O)C(C)(C)S2)CCO3)cc1OC [Compound I-330]	95%			0.027 µM	
